Data: ChEMBL document CHEMBL1201862, “PubChem BioAssay data set” (2004)
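Each compound was tested at five concentrations against cells in 96-well plates for 48 hours. GI50 marks 50% less growth.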 The source made the active and inactive calls. Rule as the data show it: active = GI50 up to about 1.1 µM and inactive = higher.

Assays:
Assay in all cases: growth of human tumour cells (NCI), 48 h
[1] = system: 786-0
[2] = system: A498
[3] = system: COLO 205
[4] = system: DU-145
[5] = system: HCT-116
[6] = system: HCT-15
[7] = system: HL-60
[8] = system: HOP-62
[9] = system: Hs-578T
[10] = system: LOX IMVI
[11] = system: M14
[12] = system: MCF7
[13] = system: MOLT-4
[14] = system: NCI-H226
[15] = system: NCI-H460
[16] = system: PC-3
[17] = system: SF-295
[18] = system: SK-MEL-28
[19] = system: SK-MEL-2
[20] = system: TK-10

Compound	GI50 [1]	GI50 [2]	GI50 [3]	GI50 [4]	GI50 [5]	GI50 [6]	GI50 [7]	GI50 [8]	GI50 [9]	GI50 [10]	GI50 [11]	GI50 [12]	GI50 [13]	GI50 [14]	GI50 [15]	GI50 [16]	GI50 [17]	GI50 [18]	GI50 [19]	GI50 [20]
CC(C)Cn1cnc2c(NCC(C)O)nc3ccccc3c21 (stereo not drawn)	> 100 µM (inactive)	60.8 µM (inactive)	51.1 µM (inactive)	89.5 µM (inactive)	42.5 µM (inactive)	78.3 µM	37.5 µM (inactive)	> 100 µM (inactive)	45.7 µM (inactive)	42.6 µM (inactive)	> 100 µM (inactive)	> 100 µM (inactive)	63.2 µM (inactive)	> 100 µM (inactive)	> 100 µM (inactive)	87.7 µM (inactive)	> 100 µM (inactive)	> 100 µM (inactive)	> 100 µM (inactive)	91.4 µM (inactive)
OC1(c2ccccc2)c2ccccc2N=C2NCCN21 (stereo not drawn)	72.9 µM (inactive)	86.5 µM (inactive)	32.9 µM (inactive)	> 100 µM (inactive)	83.9 µM (inactive)	93.1 µM	44.1 µM (inactive)	> 100 µM (inactive)	> 100 µM (inactive)	23.4 µM (inactive)	50.6 µM (inactive)	63.1 µM (inactive)	0.424 µM (active)	> 100 µM (inactive)	56.4 µM (inactive)	52.2 µM (inactive)	57.5 µM (inactive)	89.3 µM (inactive)	> 100 µM (inactive)	37.4 µM (inactive)
COc1ccc2nc3cc([N+](=O)[O-])ccc3c(NNc3ccc([N+](=O)[O-])cc3)c2c1	36.9 µM (inactive)	0.0951 µM (active)	17.2 µM (inactive)	47.8 µM (inactive)	5.69 µM (inactive)	55.8 µM	20.3 µM (inactive)	57.3 µM (inactive)	55.3 µM (inactive)	61.1 µM (inactive)	43.4 µM (inactive)	4.01 µM (inactive)	25.5 µM (inactive)	2.36 µM (inactive)	3.16 µM (inactive)	22.4 µM (inactive)	22 µM (inactive)	68.2 µM (inactive)	27.6 µM (inactive)	2.46 µM (inactive)
c1ccc(-c2nn(-c3ccccc3)[n+](-c3ccccc3)n2)cc1 [TETRAZOLIUM RED]	14.3 µM (inactive)	> 74.6 µM (inactive)	–	> 48.5 µM (inactive)	6.5 µM (inactive)	> 100 µM	0.184 µM (active)	19.5 µM (inactive)	31.6 µM (inactive)	11.9 µM (inactive)	10.7 µM (inactive)	2.88 µM (inactive)	19.1 µM (inactive)	24.5 µM (inactive)	21.1 µM (inactive)	3.83 µM (inactive)	> 56.1 µM (inactive)	19.4 µM (inactive)	36.8 µM (inactive)	43 µM (inactive)
O=S(=O)(O)c1ccc(-c2nnc(-c3ccccn3)nc2-c2ccc(S(=O)(=O)O)o2)o1	> 100 µM (inactive)	> 100 µM (inactive)	> 100 µM (inactive)	> 100 µM (inactive)	> 100 µM (inactive)	> 100 µM	0.329 µM (active)	> 100 µM (inactive)	> 100 µM (inactive)	> 100 µM (inactive)	> 100 µM (inactive)	> 100 µM (inactive)	> 100 µM (inactive)	> 100 µM (inactive)	> 100 µM (inactive)	> 100 µM (inactive)	> 100 µM (inactive)	> 100 µM (inactive)	> 100 µM (inactive)	–
CC(=O)/C(=C\I)c1ccccc1	2.12 µM (inactive)	17.7 µM (inactive)	1.71 µM (inactive)	3.38 µM (inactive)	2.26 µM (inactive)	1.83 µM	1.08 µM (active)	23.1 µM (inactive)	3.44 µM (inactive)	1.67 µM (inactive)	2.31 µM (inactive)	1.8 µM (inactive)	1.89 µM (inactive)	21.2 µM (inactive)	11.2 µM (inactive)	2.51 µM (inactive)	19.1 µM (inactive)	3.18 µM (inactive)	2.6 µM (inactive)	13.9 µM (inactive)
Brc1ccccc2cc(-c3ccccc3)nc1-2	1.92 µM (inactive)	14 µM (inactive)	2.14 µM (inactive)	11.9 µM (inactive)	1.85 µM (inactive)	2.24 µM	1.27 µM (inactive)	9.93 µM (inactive)	6.87 µM (inactive)	2.23 µM (inactive)	3 µM (inactive)	8.79 µM (inactive)	1.53 µM (inactive)	5.05 µM (inactive)	11.9 µM (inactive)	13.5 µM (inactive)	15.6 µM (inactive)	3.94 µM (inactive)	4.61 µM (inactive)	7.57 µM (inactive)
